Results on five compounds are retold here after patent US20240050590A1, “METHODS AND COMPOSITIONS TO REGULATE CHOLESTEROL EFFLUX TO PREVENT, TREAT, OR CURE MACULAR DEGENERATION” (The Trustees of Columbia University in the City of New York, priority 2021, published 2024).

What all share (format): cell-based, human
The subject of test [1] is CES1 expression in EFEMP1^WT iRPE cells. The test is described as follows: Western blot of CES1 expression in normal (EFEMP1^WT) iRPE cells after treatment with agonists and antagonists. As to conditions: EFEMP1^WT iRPE cells from healthy donor, 72 h treatment, vs untreated control; LY294002 10 μM, GW4064 5 μM, GW3965 3 μM. Here is the method: (§1) Immunoblot To verify the differentiation of iRPE, CRALBP (Ab15051, Abcam) and RPE65 (401.8B11.3D9, Novas Biologicals) antibodies were used to detect mature RPE markers including CRALBP and RPE65 in iRPE cell lysates via western blot. To determine EFEMP1 expression in iRPE, both cell lysates and culture supernatant were assayed using anti-EFEMP1 antibody (MA5-25740, Thermo Fisher Scientific). To detect CES1 expression in iRPE, anti-CES1 antibody (AF4920, R&D) was used. Anti-alpha tubulin (T5168, Sigma Aldrich), anti-beta actin (A5316, Sigma), or anti-GAPDH (5174, Cell Signaling) antibodies were used to detect house-keeping proteins. The cell lysates were collected using RIPA buffer (Thermo Fisher Scientific).
To understand the upstream regulators of CES1 expression, the iRPE cells from healthy donor were treated with Gefitnib ([…], Sigma Aldrich), ML385 ([…], Sigma Aldrich), LY294002 (10 μM, Sigma Aldrich), GW4064 (5 μM, Sigma Aldrich), or GW3965 (3 μM, Sigma Aldrich) for 72 h. Anti-CES1 (AF4920, R&D) and anti-alpha tubulin (T5168, Sigma Aldrich) antibodies were used to detect CES1 and tubulin expression, respectively. The signal was detected using Immobilon Western Chemiluminescent HRP Substrate (Millipore). The blot was quantified using ImageJ for signal intensity.
For orientation: Immunoblotting shows a protein as a band on a membrane.

The test system of test [2] is iRPE cells. The test is described as follows: Cholesterol efflux assay in iRPE cells. The arrangement: dose or concentration left out as unconfirmed. The settings on record: EFEMP1^R345W iRPE. Here is the method: Cholesterol efflux assay Cholesterol Efflux Assay Kit (Abcam) was used to determine the cholesterol efflux rate in iRPE according to the manufacturer's protocol. In brief, fluorescence-labeled cholesterol was added to iRPE culture and incubated overnight. On the next day, the cells were washed twice with PBS, and the efflux of cholesterol was induced by 2% human serum. At designated time points, the culture supernatant and cell lysate were collected and measured by fluorescence at Ex/Em: 482/515 nm. The percentage of cholesterol efflux was calculated by fluorescence intensity of media fluorescence/(fluorescence intensity of cell lysate+media)×100.
(§2) Lentiviral transduction For the knockdown of CES1 (MIM: 114835) in iRPE cells, the iRPE cells from healthy donor were cultured in 6-well plate. The lentiviral particles carrying CES1 shRNA (Locus ID 1066, Origene) were transduced into the iRPE cells at a MOI of 10 overnight. To establish fair comparison, the control iRPE cells were transduced with viral particles expressing scramble shRNA. The medium was refreshed the following day, and the cell were incubated for 7 days before analysis. To achieve overexpression of CES1 in iRPE cells, lentiviral particles (Origene) expressing CMV promoter-driven CES1 (GenBank: NM_001025194) were transduced following the same procedure.

The test system of test [3] is CES1 expression in EFEMP1^R345W iRPE cells. Put plainly: Western blot of CES1 expression in EFEMP1^R345W iRPE cells treated with EGF. The settings on record: 100 nM EGF, 72 h incubation, vs untreated cells. The method, then: as §1
For test [4], the system named is iRPE cells. Put plainly: Nile red staining and quantification of intracellular lipid droplets in iRPE cells. Details: amount of lipid droplets: dose or concentration left out as unconfirmed. As to conditions: EFEMP1^R345W iRPE, 2 weeks, vs untreated. The method, then: Nile red staining To stain the intracellular neutral lipid, the iRPE cell cultures were treated with […] Nile red (Sigma Aldrich) for 30 min at 37° C. The cells were washed with PBS three times before microscopy observation.
Since mature iRPE culture is usually 100% confluent, the Nile red-positively stained lipid droplets were quantified using ImageJ in a fixed area of 90,000 square micrometers for the number and size of Nile red-positive signals. Fluorescent particles smaller than 0.0001 square micrometers was excluded as noise.
as §2

“Also recorded” adds a separate entry of the source.

In the case of `Cc1ccccc1C(=O)N1CCc2cc(-c3nc(NC(=O)Cc4ccc5c(c4)OCO5)sc3C)ccc21` [ML385], the “CES1 expression level (western blot)” value in test [1] is listed as “only LY294002 reduced CES1 expression”.
Turning to `COc1cc2ncnc(Nc3ccc(F)c(Cl)c3)c2cc1OCCCN1CCOCC1` [gefitinib], the “CES1 expression level (western blot)” value in test [1] is “remarkably reduced”.
As to epidermal growth factor [EGF], the “cholesterol efflux (in words)” value in test [2] (EGF for two weeks, vs untreated) is given as “improve cholesterol efflux”. The “increase in cholesterol efflux” value in test [2] (EGF, 2 weeks, vs untreated control) amounted to 26%. Besides, the “CES1 level (western blot)” value in test [3] is recorded as “remarkably higher”. In addition, the lipid droplet size entry in test [4] (100 mM EGF) is on record as “not obvious”. For the same compound, the “amount of lipid droplets” value in test [4] (EGF) is reported as “significant decrease; also recorded: ameliorates intracellular lipid droplet accumulation”.
As for `CC(C)c1onc(-c2c(Cl)cccc2Cl)c1COc1ccc(/C=C/c2cccc(C(=O)O)c2)c(Cl)c1` [GW4064], the “CES1 expression level (western blot)” value in test [1] is given as “no change in CES1 expression”.
As for `O=C(O)Cc1cccc(OCCCN(Cc2cccc(C(F)(F)F)c2Cl)CC(c2ccccc2)c2ccccc2)c1` [GW3965], the “CES1 expression level (western blot)” value in test [1] is listed as “no change in CES1 expression”.
